This is an account of results in patent US20100105904A1, “UREA TYPE CINNAMIDE DERIVATIVE” (priority 2006, published 2010).

Each structure is given as a SMILES string.

As a reminder, the IC50 is the midpoint of a concentration-inhibition curve.

For this experiment, the system named is Aβ42 production. The experiment can be described thus: Quantification of Aβ peptide in neuronal culture from rat fetus brain (Aβ ELISA). In kind it is cell-based. Particulars: 72 h; rat primary neuronal culture (cerebral cortex, embryonic day 18 Wistar rats); medium collected three days after addition of compound; Aβx-42 ELISA; read-out: Aβ42 production reducing effect IC50. The method, then: Quantification of Aβ Peptide in Neuronal Culture from Rat Fetus Brain
Primary neuronal cultures were prepared from the cerebral cortex of embryonic day 18 Wistar rats (Charles River Japan, Yokohama, Japan). Specifically, the embryos were aseptically removed from pregnant rats under ether anesthesia. The brain was isolated from the embryo and immersed in an ice-cold L-15 medium (such as Invitrogen Corp. Cat #11415-064, Carlsbad, Calif., USA, or SIGMA L1518). The cerebral cortex was collected from the isolated brain under a stereoscopic microscope. The cerebral cortex fragments collected were enzymatically treated in an enzyme solution containing 0.25% trypsin (Invitrogen Corp. Cat #15050-065, Carlsbad, Calif., USA) and 0.01% DNase (Sigma D5025, St. Louis, Mo., USA) at 37° C. for 30 minutes to disperse the cells. Here, the enzymatic reaction was stopped by adding inactivated horse serum to the solution. The enzymatically treated solution was centrifuged at 1,500 rpm for five minutes to remove the supernatant. 5 to 10 ml of a medium was added to the resulting cell mass. Neurobasal medium (Invitrogen Corp. Cat #21103-049, Carlsbad, Calif., USA) supplemented with 2% B27 supplement (Invitrogen Corp. Cat #17504-044, Carlsbad, Calif., USA), 25 μM 2-mercaptoethanol (2-ME, WAKO Cat #139-06861, Osaka, Japan), 0.5 mM L-glutamine (Invitrogen Corp. Cat #25030-081, Carlsbad, Calif., USA), and Antibiotics-Antimycotics (Invitrogen Corp. Cat #15240-062, Carlsbad, Calif., USA) was used as the medium (Neurobasal/B27/2-ME). However, the above Neurobasal medium not supplemented with 2-ME (Neurobasal/B27) was used for the assay. The cells were redispersed by mild pipetting of the cell mass to which the medium was added. The cell dispersion was filtered through a 40-μm nylon mesh (Cell Strainer, Cat #35-2340, Becton Dickinson Labware, Franklin Lakes, N.J., USA) to remove the remaining cell mass, and thus a neuronal cell suspension was obtained. The neuronal cell suspension was diluted with the medium and then plated in a volume of 100 μl/well at an initial cell density of 5×10^5 cells/cm^2 in a 96-well polystyrene culture plate pre-coated with poly-L or D-lysine (Falcon Cat #35-3075, Becton Dickinson Labware, Franklin Lakes, N.J., USA coated with poly-L-lysine using the method shown below, or BIOCOAT™ cell environments Poly-D-lysine cell ware 96-well plate, Cat #35-6461, Becton Dickinson Labware, Franklin Lakes, N.J., USA). Poly-L-lysine coating was carried out as follows. 100 μg/ml of a poly-L-lysine (SIGMA P2636, St. Louis, Mo., USA) solution was aseptically prepared with a 0.15 M borate buffer (pH 8.5). […] of the solution was added to the 96-well polystyrene culture plate and incubated at room temperature for one or more hours or at 4° C. overnight or longer. The coated 96-well polystyrene culture plate was washed with sterile water four or more times, and then dried or rinsed with, for example, sterile PBS or medium, and used for cell plating. The plated cells were cultured in the culture plate at 37° C. in 5% CO2-95% air for one day. Then, the total amount of the medium was replaced with a fresh Neurobasal™/B27/2-ME medium, and then the cells were cultured for further three days.
The drug was added to the culture plate on Day 4 of culture as follows. The total amount of the medium was removed from the wells, and 180 μl/well of Neurobasal medium not containing 2-ME and containing 2% B-27 (Neurobasal/B27) was added thereto. A solution of the test compound in dimethyl sulfoxide (hereinafter abbreviated as DMSO) was diluted with Neurobasal/B27 to a concentration 10-fold higher than the final concentration. 20 μl/well of the dilution was added to and sufficiently mixed with the medium. The final DMSO concentration was 1% or less. Only DMSO was added to the control group.
The cells were cultured for three days after addition of the compound, and the total amount of the medium was collected. The resulting medium was used as an ELISA sample. […]
A general note: ELISA stands for enzyme-linked immunosorbent assay.
Take `COc1cc(NC(=O)NCC2c3ccccc3-c3ccccc32)ccc1-n1ccnc1` [Example 6, 1-(9H-fluoren-9-ylmethyl)-3-[4-(1H-imidazol-1-yl)-3-methoxyphenyl]urea]: the IC50 amounted to 5200 nM.
For `COc1cc(NC(=O)NCc2ccc(Cl)c(Cl)c2)ccc1-n1cnc(C)c1` [Example 8, 1-(3,4-dichlorobenzyl)-3-[3-methoxy-4-(4-methyl-1H-imidazol-1-yl)phenyl]urea] the value was 1710 nM; for `COc1cc(NC(=O)N[C@@H](C)c2ccc(F)cc2)ccc1-n1cnc(C)c1` [Example 10, 1-[(S)-1-(4-fluorophenyl)ethyl]-3-[3-methoxy-4-(4-methyl-1H-imidazol-1-yl)phenyl]urea], 1220 nM; for `COc1cc(NC(=O)NCCc2ccc(Cl)c(Cl)c2)ccc1-n1cnc(C)c1` [Example 11, 1-[2-(3,4-dichlorophenyl)ethyl]-3-[3-methoxy-4-(4-methyl-1H-imidazol-1-yl)phenyl]urea], 970 nM.
In the case of `COc1cc(NC(=O)NCC2(c3ccccc3)Cc3ccccc3C2)ccc1-n1cnc(C)c1` [Example 15, 1-[3-methoxy-4-(4-methyl-1H-imidazol-1-yl)phenyl]-3-(2-phenyl-indan-2-ylmethyl)urea monotrifluoroacetate], the IC50 was 160 nM.
For the compound `COc1cc(NC(=O)N2CCCCC2CCc2ccccc2F)ccc1-n1cnc(C)c1` (centres unmarked) [Example 16, 2-[2-(2-fluorophenyl)ethyl]piperidine-1-carboxylic acid [3-methoxy-4-(4-methyl-1H-imidazol-1-yl)phenyl]amide monotrifluoroacetate], the half-maximal inhibitory concentration (IC50) stood at 1420 nM.
Next, `COc1cc(NC(=O)NC(Cc2ccccc2)c2ccccc2)ccc1-n1cnc(C)c1` (centres unmarked) [Example 17, 1-(1,2-diphenyl-ethyl)-[3-methoxy-4-(4-methyl-1H-imidazol-1-yl)phenyl]urea monotrifluoroacetate]: 560 nM; `COc1cc(NC(=O)NCCCc2ccccc2)ccc1-n1cnc(C)c1` [Example 18, 1-[3-methoxy-4-(4-methyl-1H-imidazol-1-yl)phenyl]-3-(3-phenylpropyl)urea monotrifluoroacetate]: 860 nM; `COc1cc(NC(=O)NCc2cc(F)c(F)c(F)c2)ccc1-n1cnc(C)c1` [Example 19, 1-[3-methoxy-4-(4-methyl-1H-imidazol-1-yl)phenyl]-3-(3,4,5-trifluorobenzyl)urea monotrifluoroacetate]: 2070 nM.
Take `COc1cc(NC(=O)N2CCC(c3ccccc3)CC2)ccc1-n1cnc(C)c1` [Example 20, 4-phenyl-piperidine-1-carboxylic acid [3-methoxy-4-(4-methyl-1H-imidazo1-1-yl)phenyl]amide monotrifluoroacetate]: the IC50 turned out to be 1610 nM.
For `COc1cc(NC(=O)N2CCCC(c3ccccc3)C2)ccc1-n1cnc(C)c1` (centres unmarked) [Example 21, 3-phenyl-piperidine-1-carboxylic acid [3-methoxy-4-(4-methyl-1H-imidazol-1-yl)phenyl]amide monotrifluoroacetate] the value was 1660 nM.
With `COc1cc(NC(=O)N[C@@H](CO)Cc2ccccc2)ccc1-n1cnc(C)c1` [Example 23, 1-((R)-1-hydroxymethyl-2-phenylethyl)-3-[3-methoxy-4-(4-methyl-1H-imidazol-1-yl)phenyl]urea], the 50% inhibitory concentration (IC50) came to 1050 nM.
Next, `COc1cc(NC(=O)NCCC(c2ccccc2)c2ccccc2)ccc1-n1cnc(C)c1` [Example 24, 1-(3,3-diphenylpropyl)-3-[3-methoxy-4-(4-methyl-1H-imidazol-1-yl)phenyl]urea monotrifluoroacetate]: 220 nM; `COc1cc(NC(=O)NCC(c2ccccc2)c2ccccc2)ccc1-n1cnc(C)c1` [Example 25, 1-(2,2-diphenylethyl)-3-[3-methoxy-4-(4-methyl-1H-imidazol-1-yl)phenyl]urea monotrifluoroacetate]: 190 nM.
For `COc1cc(NC(=O)NCCCc2ccc(C3CCCCC3)cc2)ccc1-n1cnc(C)c1` [Example 26, 1-[3-(4-cyclohexyl-phenyl)propyl]-3-[3-methoxy-4-(4-methyl-1H-imidazol-1-yl)phenyl]urea monotrifluoroacetate] the value was 230 nM; for `COc1cc(NC(=O)NCC(C)(C)c2ccccc2)ccc1-n1cnc(C)c1` [Example 27, 1-[3-methoxy-4-(4-methyl-1H-imidazol-1-yl)phenyl]-3-(2-methyl-2-phenylpropyl)urea monotrifluoroacetate], 540 nM.
Next, `COc1cc(NC(=O)NC[C@H](O)c2ccccc2)ccc1-n1cnc(C)c1` [Example 29, 1-(R)-2-hydroxy-2-phenylethyl-3-[3-methoxy-4-(4-methyl-1H-imidazol-1-yl)phenyl]urea]: 3840 nM.
